Structures are written as SMILES.

Data set [1] relates to Mus musculus. In words: Anticonvulsant activity in Swiss Albino mouse model of maximal electroshock-induced seizure assessed as protection against seizure by measuring suppression of hind limb extension at 30 mg/kg, ip pretreated for 30 mins before seizure stimulation and measured after 6 hrs by MES test relative to control. The class given is functional. As to conditions: time 6.5 hrs. For orientation: In the maximal electroshock model the usual endpoint is tonic extension of the hind limbs.

Data set [2] relates to Mus musculus. Description: Anticonvulsant activity in Swiss Albino mouse model of maximal electroshock-induced seizure assessed as protection against seizure by measuring suppression of hind limb extension at 30 mg/kg, po pretreated for 30 mins before seizure stimulation and measured after 2 hrs by MES test relative to control. The class given is functional. The following applies: time 2.5 hrs.

Data set [3] relates to Mus musculus. Description: Anticonvulsant activity in Swiss Albino mouse model of maximal electroshock-induced seizure assessed as protection against seizure by measuring suppression of hind limb extension at 100 mg/kg, ip pretreated for 30 mins before seizure stimulation and measured after 3 hrs by MES test relative to control. It is filed as functional. As to conditions: 0.5 h.

Data set [4] in a line: Renal toxicity in Wistar rat assessed as calcium level at 100 mg/kg, po for 14 days (reference value: 10.3 +/- 1.8 mg/dL) by kidney function test. The class given is organism-based. As to conditions: in vivo, 336 h, time 14 day.
A short description of data set [5]: Renal toxicity in Wistar rat assessed as uric acid level at 100 mg/kg, po for 14 days (reference value: 4.33 +/- 2.5 mg/dL) by kidney function test. It is filed as organism-based. The following applies: in vivo, 336 h, time 14 day.
Data set [6] concerns Mus musculus. Description: Anticonvulsant activity in Swiss Albino mouse assessed as protection against seizure at 100 mg/kg, ip measured after 3 hrs by sc-PTZ seizure test relative to control. It is filed as functional.
The next data set deals with Carbonic anhydrase 9 (Homo sapiens, UniProt Q16790). Description: Inhibition of recombinant human carbonic anhydrase 9 by stopped-flow CO2 hydration assay.
Data set [7] relates to Mus musculus. Description: Anticonvulsant activity in Swiss Albino mouse model of maximal electroshock-induced seizure assessed as protection against seizure by measuring suppression of hind limb extension at 30 mg/kg, po pretreated for 30 mins before seizure stimulation and measured after 4 hrs by MES test relative to control. It is filed as functional. The following applies: time 4.5 hrs.

Data set [8] in a line: Hepatotoxicity in Wistar rat assessed as alkaline phosphatase level at 100 mg/kg, po for 14 days (reference value: 114.2 +/- 8.4 U/L) by liver function test. The class given is toxicity, organism-based. The following applies: in vivo, 336 h, time 14 day.
For data set [9], the system named is Mus musculus. In words: Anticonvulsant activity in Swiss Albino mouse assessed as protection against seizure at 100 mg/kg, ip measured after 0.5 hrs by sc-PTZ seizure test relative to control. The class given is functional.

As usually defined, the Ki is a dissociation constant, usually derived from enzyme kinetics or from competition with a known ligand. As to `NS(=O)(=O)c1ccc(CNC(=O)CCN2CCN(Cc3ccc4c(c3)OCO4)CC2)cc1`, the Activity in the data set with Mus musculus [1] came out at 50%; with Mus musculus [2], 67%; in the data set with Mus musculus [3], 67%; in data set [4] it was 9.9 mg/dL; in data set [5] it was 2.73 mg/dL; in the data set with Mus musculus [6], 50%. Further, the Activity in the data set on Mus musculus [7] worked out at 50%; in data set [8], 113.4 U/L; with Mus musculus [9], 50%. Moreover, the Ki at Carbonic anhydrase 9 was 104 nM.

The record behind these values is ChEMBL document CHEMBL4680105, “Discovery of Benzenesulfonamide Derivatives as Carbonic Anhydrase Inhibitors with Effective Anticonvulsant Action: Design, Synthesis, and Pharmacological Evaluation” (J Med Chem, 2018).
